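Each compound was tested at five concentrations against cells in 96-well plates for 48 hours. GI50 is the concentration that inhibits growth by half. At the TGI there is no net growth.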
Key:
Assay in all cases: NCI anticancer screen, dose series, 48 h
MCF7 breast = test system: MCF7 breast
DU-145 prostate = test system: DU-145 prostate
NCI/ADR-RES ovarian = test system: NCI/ADR-RES ovarian
MOLT-4 leukemia = test system: MOLT-4 leukemia
UACC-257 melanoma = test system: UACC-257 melanoma
RPMI-8226 leukemia = test system: RPMI-8226 leukemia
SK-MEL-28 melanoma = test system: SK-MEL-28 melanoma
SK-OV-3 ovarian = test system: SK-OV-3 ovarian
NCI-H460 lung = test system: NCI-H460 lung
HCT-15 colon = test system: HCT-15 colon
MDA-MB-435 = test system: MDA-MB-435
NCI-H23 lung = test system: NCI-H23 lung
EKVX NSCLC = test system: EKVX NSCLC
UO-31 renal = test system: UO-31 renal
MALME-3M melanoma = test system: MALME-3M melanoma
TK-10 renal = test system: TK-10 renal
SK-MEL-5 melanoma = test system: SK-MEL-5 melanoma
786-0 renal = test system: 786-0 renal
IGROV1 ovarian = test system: IGROV1 ovarian
SF-268 CNS = test system: SF-268 CNS
BT-549 breast = test system: BT-549 breast
ACHN renal = test system: ACHN renal
CCRF-CEM leukemia = test system: CCRF-CEM leukemia
SNB-75 CNS = test system: SNB-75 CNS
HOP-62 NSCLC = test system: HOP-62 NSCLC
HOP-92 NSCLC = test system: HOP-92 NSCLC
NCI-H226 lung = test system: NCI-H226 lung
UACC-62 melanoma = test system: UACC-62 melanoma
SW-620 colon = test system: SW-620 colon
HS 578T breast = test system: HS 578T breast
NCI-H522 lung = test system: NCI-H522 lung
SK-MEL-2 melanoma = test system: SK-MEL-2 melanoma
SR leukemia = test system: SR leukemia
HL-60(TB) leukemia = test system: HL-60(TB) leukemia
COLO 205 colon = test system: COLO 205 colon
A549 NSCLC = test system: A549 NSCLC
M14 melanoma = test system: M14 melanoma
SNB-19 CNS = test system: SNB-19 CNS
U251 CNS = test system: U251 CNS
OVCAR-8 ovarian = test system: OVCAR-8 ovarian
SN12C renal = test system: SN12C renal
SF-295 CNS = test system: SF-295 CNS
HT29 colon = test system: HT29 colon
OVCAR-5 ovarian = test system: OVCAR-5 ovarian
K-562 leukemia = test system: K-562 leukemia
HCC-2998 colon = test system: HCC-2998 colon
OVCAR-4 ovarian = test system: OVCAR-4 ovarian
PC-3 prostate = test system: PC-3 prostate
LOX IMVI melanoma = test system: LOX IMVI melanoma
SF-539 CNS = test system: SF-539 CNS
KM12 colon = test system: KM12 colon
A498 renal = test system: A498 renal
T-47D breast = test system: T-47D breast
MDA-MB-231 breast = test system: MDA-MB-231 breast
HCT-116 colon = test system: HCT-116 colon
OVCAR-3 ovarian = test system: OVCAR-3 ovarian
CAKI-1 renal = test system: CAKI-1 renal

**Q.** Which results are given for `Cc1cc(Nc2ccc3c(c2)OCO3)c2cc3c(cc2n1)OCO3`?
**A.** GI50 (MCF7 breast): 0.376 µM; TGI (MCF7 breast): 15 µM; GI50 (DU-145 prostate): 2.91 µM; TGI (DU-145 prostate): 12.3 µM; GI50 (NCI/ADR-RES ovarian): 2.15 µM; TGI (NCI/ADR-RES ovarian): 18.5 µM; GI50 (MOLT-4 leukemia): 2.51 µM; TGI (MOLT-4 leukemia): > 54.5 µM; GI50 (UACC-257 melanoma): 3.57 µM; TGI (UACC-257 melanoma): 23.4 µM; GI50 (RPMI-8226 leukemia): 0.526 µM; TGI (RPMI-8226 leukemia): 3.6 µM; GI50 (SK-MEL-28 melanoma): 1.93 µM; TGI (SK-MEL-28 melanoma): 14.1 µM; GI50 (SK-OV-3 ovarian): 3.22 µM; TGI (SK-OV-3 ovarian): 30.1 µM; GI50 (NCI-H460 lung): 2.3 µM; TGI (NCI-H460 lung): 12.3 µM; GI50 (HCT-15 colon): 0.9 µM; TGI (HCT-15 colon): 16.6 µM; GI50 (MDA-MB-435): 0.265 µM; TGI (MDA-MB-435): 1.37 µM; GI50 (NCI-H23 lung): 3.93 µM; TGI (NCI-H23 lung): 23.7 µM; GI50 (EKVX NSCLC): 1.64 µM; TGI (EKVX NSCLC): 13.2 µM; GI50 (UO-31 renal): 1.63 µM; TGI (UO-31 renal): 9.1 µM; GI50 (MALME-3M melanoma): 2.08 µM; TGI (MALME-3M melanoma): 20.9 µM; GI50 (TK-10 renal): 5.62 µM; TGI (TK-10 renal): 32.5 µM; GI50 (SK-MEL-5 melanoma): 0.821 µM; TGI (SK-MEL-5 melanoma): 14.1 µM; GI50 (786-0 renal): 4.2 µM; TGI (786-0 renal): 17.8 µM; GI50 (IGROV1 ovarian): 0.318 µM; TGI (IGROV1 ovarian): 3.8 µM; GI50 (SF-268 CNS): 3.69 µM; TGI (SF-268 CNS): 19.3 µM; GI50 (BT-549 breast): 4.26 µM; TGI (BT-549 breast): 26.2 µM; GI50 (ACHN renal): 6.23 µM; TGI (ACHN renal): 26.6 µM; GI50 (CCRF-CEM leukemia): 1.92 µM; TGI (CCRF-CEM leukemia): 10.2 µM; GI50 (SNB-75 CNS): 0.766 µM; TGI (SNB-75 CNS): 7.38 µM; GI50 (HOP-62 NSCLC): 3.84 µM; TGI (HOP-62 NSCLC): 20.3 µM; GI50 (HOP-92 NSCLC): 1.48 µM; TGI (HOP-92 NSCLC): 9.07 µM; GI50 (NCI-H226 lung): 2.94 µM; TGI (NCI-H226 lung): 16.4 µM; GI50 (UACC-62 melanoma): 2.08 µM; TGI (UACC-62 melanoma): 16.5 µM; GI50 (SW-620 colon): 0.756 µM; TGI (SW-620 colon): 15.4 µM; GI50 (HS 578T breast): 1.08 µM; TGI (HS 578T breast): 5.35 µM; GI50 (NCI-H522 lung): 2.35 µM; TGI (NCI-H522 lung): 10 µM; GI50 (SK-MEL-2 melanoma): 4.54 µM; TGI (SK-MEL-2 melanoma): 21.5 µM; GI50 (SR leukemia): 0.532 µM; TGI (SR leukemia): > 84.4 µM; GI50 (HL-60(TB) leukemia): 0.745 µM; TGI (HL-60(TB) leukemia): > 19.9 µM; GI50 (COLO 205 colon): 1.31 µM; TGI (COLO 205 colon): 4.03 µM; GI50 (A549 NSCLC): 1.37 µM; TGI (A549 NSCLC): 11.6 µM; GI50 (M14 melanoma): 1.19 µM; TGI (M14 melanoma): 6.99 µM; GI50 (SNB-19 CNS): 2.38 µM; TGI (SNB-19 CNS): 20.9 µM; GI50 (U251 CNS): 2.8 µM; TGI (U251 CNS): 14.2 µM; GI50 (OVCAR-8 ovarian): 3.13 µM; TGI (OVCAR-8 ovarian): 15.5 µM; GI50 (SN12C renal): 4.14 µM; TGI (SN12C renal): 31.3 µM; GI50 (SF-295 CNS): 0.563 µM; TGI (SF-295 CNS): 8.85 µM; GI50 (HT29 colon): 0.878 µM; TGI (HT29 colon): 18.8 µM; GI50 (OVCAR-5 ovarian): 4.24 µM; TGI (OVCAR-5 ovarian): 41.1 µM; GI50 (K-562 leukemia): 1.24 µM; TGI (K-562 leukemia): > 100 µM; GI50 (HCC-2998 colon): 2.33 µM; TGI (HCC-2998 colon): 6.47 µM; GI50 (OVCAR-4 ovarian): 5.2 µM; TGI (OVCAR-4 ovarian): 44.4 µM; GI50 (PC-3 prostate): 1.13 µM; TGI (PC-3 prostate): 11.5 µM; GI50 (LOX IMVI melanoma): 1.85 µM; TGI (LOX IMVI melanoma): 11.5 µM; GI50 (SF-539 CNS): 2.12 µM; TGI (SF-539 CNS): 6.73 µM; GI50 (KM12 colon): 1.05 µM; TGI (KM12 colon): 14.4 µM; GI50 (A498 renal): 0.812 µM; TGI (A498 renal): 4.72 µM; GI50 (T-47D breast): 4.69 µM; TGI (T-47D breast): 38.6 µM; GI50 (MDA-MB-231 breast): 2.58 µM; TGI (MDA-MB-231 breast): 17 µM; GI50 (HCT-116 colon): 1.42 µM; TGI (HCT-116 colon): 15.8 µM; GI50 (OVCAR-3 ovarian): 0.701 µM; TGI (OVCAR-3 ovarian): 3.03 µM; GI50 (CAKI-1 renal): 2.55 µM; TGI (CAKI-1 renal): 30.7 µM
